Measured values from ChEMBL document CHEMBL4651402, “Screening of ~5500 FDA-approved drugs and clinical candidates for anti-SARS-CoV-2 activity” (2021).

System: SARS-CoV-2
Assay: microbe, parasite or virus in culture
Details: Severe acute respiratory syndrome coronavirus 2, Vero C1008, 48 h

## Cc1c(-c2cccnc2)n(CCCCCCCC(=O)O)c2ccccc12
  IC50: > 20 µM
read-out: pIC50 (converted)
  IC50: > 20 µM

## COC(=O)c1ccc(O)cc1 [METHYLPARABEN]
  IC50: > 20 µM
read-out: pIC50 (converted)
  IC50: > 20 µM

## CC1(C)OC2CC3C4CCC5=CC(=O)C=CC5(C)C4C(O)CC3(C)[C@]2(C(=O)CO)O1 (stereo partly drawn)
  IC50: > 20 µM
read-out: pIC50 (converted)
  IC50: > 20 µM

## CS(=O)(=O)Nc1ccc2c(c1)S(=O)(=O)N=C(C1=C(O)C3C4CCC(C4)C3N(Cc3ccc(F)cc3)C1=O)N2 (stereo not drawn)
  IC50: > 20 µM
read-out: pIC50 (converted)
  IC50: > 20 µM

## O=C1c2cccnc2OC[C@@H]2CCCN12
  IC50: > 20 µM
read-out: pIC50 (converted)
  IC50: > 20 µM

## C[C@@H]1CCC2[C@H](C)C3CC[C@@]4(O)[C@@H]5CC(=O)[C@H]6CC(=O)CC[C@]6(C)C5C[C@H]4[C@@H]3CN2C1 (stereo partly drawn)
  IC50: > 20 µM
read-out: pIC50 (converted)
  IC50: > 20 µM

## CCC[C@]1(c2cccc(O)c2)CCN(C)C[C@@H]1C
  IC50: > 20 µM
read-out: pIC50 (converted)
  IC50: > 20 µM

## N[C@@]1(C(=O)O)CS(=O)(=O)[C@H]2[C@H](C(=O)O)[C@H]21 [LY404039]
  IC50: > 20 µM
read-out: pIC50 (converted)
  IC50: > 20 µM

## CC(C)NC(=O)COc1cccc(-c2nc(Nc3ccc4[nH]ncc4c3)c3ccccc3n2)c1 [BELUMOSUDIL]
  IC50: > 20 µM
read-out: pIC50 (converted)
  IC50: > 20 µM

## CCCN1CCC[C@@H](c2cccc(O)c2)C1 [PRECLAMOL]
  IC50: > 20 µM
read-out: pIC50 (converted)
  IC50: > 20 µM

## CC(C)CC(NC(=O)CCN)C(=O)O (racemic)
  IC50: > 20 µM
read-out: pIC50 (converted)
  IC50: > 20 µM

## O=C(/C=C/c1ccc2c(c1)OCO2)N1CCCCC1 [ILEPCIMIDE]
  IC50: > 20 µM
read-out: pIC50 (converted)
  IC50: > 20 µM

## COc1cc(Nc2c(C#N)cnc3cc(OCCCN4CCN(C)CC4)c(OC)cc23)c(Cl)cc1Cl [BOSUTINIB]
  IC50: > 20 µM
read-out: pIC50 (converted)
  IC50: > 20 µM

## COc1cc2c(N)nc(N3CCN(C(=O)OCC(C)(C)O)CC3)nc2c(OC)c1OC [TRIMAZOSIN]
  IC50: > 20 µM
read-out: pIC50 (converted)
  IC50: > 20 µM

## CCCCN1C[C@@H](O)[C@@H](O)[C@H](O)[C@H]1CO
  IC50: > 20 µM
read-out: pIC50 (converted)
  IC50: > 20 µM

## CC1C(=O)OC2C(O)C34C5CC(C(C)(C)C)C36C(OC(=O)C6O)OC4(C(=O)O5)C12O (stereo not drawn)
  IC50: > 20 µM
read-out: pIC50 (converted)
  IC50: > 20 µM

## C[C@@H](N)[C@@H](O)c1ccccc1 [(1S,2R)-PHENYLPROPANOLAMINE]
  IC50: > 20 µM
read-out: pIC50 (converted)
  IC50: > 20 µM

## c1cc2c(cc1C1CCCCC1)c1c3n2CCNC3CCC1 (stereo not drawn)
  IC50: > 20 µM
read-out: pIC50 (converted)
  IC50: > 20 µM

## CCN(C(=O)c1c(O)c2c(Cl)cccc2n(C)c1=O)c1ccccc1 [LAQUINIMOD]
  IC50: > 20 µM
read-out: pIC50 (converted)
  IC50: > 20 µM

## NC[C@H]1O[C@H](O[C@H]2[C@H](O)[C@@H](O[C@H]3O[C@H](CO)[C@@H](O)[C@H](N)[C@H]3O)[C@H](N)C[C@@H]2N)[C@H](O)[C@@H](O)[C@@H]1O [KANAMYCIN]
  IC50: > 20 µM
read-out: pIC50 (converted)
  IC50: > 20 µM

## CCOC(=O)n1ccn(C)c1=S [CARBIMAZOLE]
  IC50: > 20 µM
read-out: pIC50 (converted)
  IC50: > 20 µM

## NCc1c[nH]c(=S)n1[C@H]1CCc2c(F)cc(F)cc2C1
  IC50: > 20 µM
read-out: pIC50 (converted)
  IC50: > 20 µM

## O=C1c2ccccc2C(=O)C1c1ccc(Cl)cc1 [CLORINDIONE]
  IC50: > 20 µM
read-out: pIC50 (converted)
  IC50: > 20 µM

## CC(=O)OC1CCC2(C)C3CC(=O)C4(C)C(CC5O[C@]6(CCC(C)CO6)C(C)C54)C3CC[C@H]2C1 (stereo partly drawn)
  IC50: > 20 µM
read-out: pIC50 (converted)
  IC50: > 20 µM

## CC[C@@H]1C(=O)OC[C@@H]1Cc1cncn1C [PILOCARPINE]
  IC50: > 20 µM
read-out: pIC50 (converted)
  IC50: > 20 µM

## O=C(CCCCCCNC(=O)c1cnc(N(c2ccccc2)c2ccccc2)nc1)NO [RICOLINOSTAT]
  IC50: > 20 µM
read-out: pIC50 (converted)
  IC50: > 20 µM

## CCOC(=O)Nc1ccc2c(c1)N(C(=O)CCN(CC)CC)c1ccccc1S2 [ETHACIZINE]
  IC50: > 20 µM
read-out: pIC50 (converted)
  IC50: > 20 µM

## Nc1ccn([C@@H]2O[C@H](CO)[C@@H](O)C2(F)F)c(=O)n1 [GEMCITABINE]
  IC50: > 20 µM
read-out: pIC50 (converted)
  IC50: > 20 µM

## O=C1CC[C@@]2(O)[C@H]3Cc4ccc(O)c5c4[C@@]2(CCN3CC2CC2)[C@H]1O5 [NALTREXONE]
  IC50: > 20 µM
read-out: pIC50 (converted)
  IC50: > 20 µM

## CO[C@@]12[C@H](COC(N)=O)C3=C(C(=O)C(C)=C(N)C3=O)N1C[C@@H]1N[C@@H]12 [MITOMYCIN]
  IC50: > 20 µM
read-out: pIC50 (converted)
  IC50: > 20 µM

## O[C@@H](c1cc(C(F)(F)F)nc2c(C(F)(F)F)cccc12)[C@H]1CCCCN1 [(S,R)-MEFLOQUINE]
  IC50: > 20 µM
read-out: pIC50 (converted)
  IC50: > 20 µM

## c1ccc(N2CCN(Cc3nc4ccccc4[nH]3)CC2)nc1 [ABT-724]
  IC50: > 20 µM
read-out: pIC50 (converted)
  IC50: > 20 µM

## O=C(Nc1ccc(Cl)c(S(=O)(=O)N2CCNCC2)c1O)Nc1cccc(F)c1Cl [ELUBRIXIN]
  IC50: > 20 µM
read-out: pIC50 (converted)
  IC50: > 20 µM

## CC[N+](C)(CC)CCOC(=O)C(O)(c1ccccc1)C1CCCCC1 (stereo not drawn) [OXYPHENONIUM]
  IC50: > 20 µM
read-out: pIC50 (converted)
  IC50: > 20 µM

## CC(=O)c1ccc(S(=O)(=O)NC(=O)NC2CCCCC2)cc1 [ACETOHEXAMIDE]
  IC50: > 20 µM
read-out: pIC50 (converted)
  IC50: > 20 µM

## O=C(NCCCN1CCOCC1)c1ccc(Cl)cc1 [EPROBEMIDE]
  IC50: > 20 µM
read-out: pIC50 (converted)
  IC50: > 20 µM

## CC(C)(C)c1cc(C(=O)c2cccs2)cc(C(C)(C)C)c1O [PRIFELONE]
  IC50: > 20 µM
read-out: pIC50 (converted)
  IC50: > 20 µM

## c1ccc2cc(COC3CCNCC3)ccc2c1 [LITOXETINE]
  IC50: > 20 µM
read-out: pIC50 (converted)
  IC50: > 20 µM

## Cc1ccc([C@H]2O[C@H](CO)[C@@H](O)[C@H](O)[C@H]2O)cc1Cc1ccc(-c2ccc(F)cc2)s1
  IC50: > 20 µM
read-out: pIC50 (converted)
  IC50: > 20 µM

## CN1C(=O)[C@@H](NC(=O)c2cc3ccccc3[nH]2)N=C(c2ccccc2)c2ccccc21 [DEVAZEPIDE]
  IC50: > 20 µM
read-out: pIC50 (converted)
  IC50: > 20 µM

## Cc1nc(C)c(C)nc1C [LIGUSTRAZINE]
  IC50: > 20 µM
read-out: pIC50 (converted)
  IC50: > 20 µM

## COc1ccc(/C=C/C(=O)Nc2ccccc2C(=O)O)cc1OC
  IC50: > 20 µM
read-out: pIC50 (converted)
  IC50: > 20 µM

## N=C(N)N [GUANIDINE]
  IC50: > 20 µM
read-out: pIC50 (converted)
  IC50: > 20 µM

## CCC1(c2ccccc2)C(=O)NC(=O)NC1=O [PHENOBARBITAL]
  IC50: > 20 µM
read-out: pIC50 (converted)
  IC50: > 20 µM

## CSC[C@H](NC(=O)COc1cccc2cnccc12)C(=O)N[C@@H](Cc1ccccc1)[C@H](O)C(=O)N1CSC[C@H]1C(=O)NC(C)(C)C
  IC50: > 20 µM
read-out: pIC50 (converted)
  IC50: > 20 µM

## CCNC(=O)c1noc(-c2cc(C(C)C)c(O)cc2O)c1-c1ccc(CN2CCOCC2)cc1 [LUMINESPIB]
  IC50: > 20 µM
read-out: pIC50 (converted)
  IC50: > 20 µM

## CCCC[C@](C)(CO)Nc1nc(N)nc2cc(F)cnc12 [SELGANTOLIMOD]
  IC50: > 20 µM
read-out: pIC50 (converted)
  IC50: > 20 µM

## CN(C)CCN(Cc1ccc(Cl)s1)c1ccccn1 [CHLOROTHEN]
  IC50: > 20 µM
read-out: pIC50 (converted)
  IC50: > 20 µM

## c1ccc(Cn2cc(CCc3ccncc3)c3ccccc32)cc1 [BENZINDOPYRINE]
  IC50: > 20 µM
read-out: pIC50 (converted)
  IC50: > 20 µM

## CN1CCC(=C2c3ccccc3CC(=O)c3sccc32)CC1 [KETOTIFEN]
  IC50: > 20 µM
read-out: pIC50 (converted)
  IC50: > 20 µM

## CCO[C@@H]1OC(=O)C[C@@H]1NC(=O)[C@@H]1CCCN2C(=O)CC[C@H](NC(=O)c3nccc4ccccc34)C(=O)N12
  IC50: > 20 µM
read-out: pIC50 (converted)
  IC50: > 20 µM

## CCOC(=O)/C=C(C)/C=C/C=C(C)/C=C/c1c(C)cc(OC)c(C)c1C [ETRETINATE]
  IC50: > 20 µM
read-out: pIC50 (converted)
  IC50: > 20 µM

## O=c1ncn2nc(Sc3ccc(F)cc3F)ccc2c1-c1c(Cl)cccc1Cl [NEFLAMAPIMOD]
  IC50: > 20 µM
read-out: pIC50 (converted)
  IC50: > 20 µM

## Cc1cccc(C)c1CNc1cc(C(=O)NCCO)cn2c(C)c(C)nc12 [LINAPRAZAN]
  IC50: > 20 µM
read-out: pIC50 (converted)
  IC50: > 20 µM
